From patent US11446287B2, “Compounds and methods for EP300 or CBP modulation and indications therefor” (Opna Immuno-Oncology SA, priority 2019, dated 2022)

The compounds below were run against T1, Recombinant human BRD4 containing dual bromodomains (BRD4-BD12 (1-477)) (Homo sapiens, UniProt O60885) (assay: BRD4 Alphascreen binding assay).
T1 construct: Recombinant human BRD4 containing dual bromodomains (BRD4-BD12 (1-477)); made in house; host or cells: E. coli BL21-CodonPlus (DE3), modified pET vector
Summary of the method: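 His-tagged human BRD4 tandem bromodomains (1-477, E. coli) incubated 1 h at room temperature with biotinylated tetra-acetylated H4 (1-21) peptide and compound in HEPES pH 7.5 buffer with 2 mM DTT. AlphaScreen signal read 30 min after adding beads (7.5 μg/ml); IC50 from four-parameter fit after normalization to controls.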

First: Cc1noc(C)c1-c1cnc2c(C(=O)C3CC3)c(O)n(-c3ccnc(C(=O)O)c3)c2c1 [P-0084, 4-(3-(cyclopropanecarbonyl)-6-(3,5-dimethylisoxazol-4-yl)-2-hydroxy-1H-pyrrolo[3,2-b]pyridin-1-yl)picolinic acid]
Second: Cc1noc(C)c1-c1cnc2c(C(=O)c3ccccc3Cl)cn(-c3ccnc(C(=O)O)c3)c2c1 [P-0089, 4-(3-(2-chlorobenzoyl)-6-(3,5-dimethylisoxazol-4-yl)-1H-pyrrolo[3,2-b]pyridin-1-yl)picolinic acid]
The IC50 of the first is lower: 0.0001 to 1 µM for the first, 1 to 8 µM for the second.

First: Cc1noc(C)c1-c1cnc2c(c1)c(-c1cccc(C(=O)O)c1)cn2C(=O)c1ccccc1 [P-0085, 3-(1-benzoyl-5-(3,5-dimethylisoxazol-4-yl)-1H-pyrrolo[2,3-b]pyridin-3-yl)benzoic acid]
Second: Cc1noc(C)c1-c1cnc2c(c1)c(-c1cccc(C(=O)NS(C)(=O)=O)c1)cn2Cc1ccccc1 [P-0092, 3-(1-benzyl-5-(3,5-dimethylisoxazol-4-yl)-1H-pyrrolo[2,3-b]pyridin-3-yl)-N-(methylsulfonyl)benzamide]
The IC50 of the first is higher: 8 to 1000 µM for the first, 1 to 8 µM for the second.

Cc1noc(C)c1-c1cnc2c(CC3CCC3)cn(-c3c(C(=O)O)ccc(Br)c3F)c2c1 [P-0086, 4-bromo-2-(3-(cyclobutylmethyl)-6-(3,5-dimethylisoxazol-4-yl)-1H-pyrrolo[3,2-b]pyridin-1-yl)-3-fluorobenzoic acid] and COc1c(-n2cc(CC3CCC3)c3ncc(-c4c(C)noc4C)cc32)ccc(C(=O)O)c1F [P-0087, 4-(3-(cyclobutylmethyl)-6-(3,5-dimethylisoxazol-4-yl)-1H-pyrrolo[3,2-b]pyridin-1-yl)-2-fluoro-3-methoxybenzoic acid] fall in the same range of IC50: 1 to 8 µM for the first, 1 to 8 µM for the second.

Compared with Cc1noc(C)c1-c1cnc2c(C(=O)c3cccc(Cl)c3)cn(-c3ccnc(C(=O)O)c3)c2c1 [P-0088, 4-(3-(3-chlorobenzoyl)-6-(3,5-dimethylisoxazol-4-yl)-1H-pyrrolo[3,2-b]pyridin-1-yl)picolinic acid], Cc1noc(C)c1-c1cnc2c(Cc3cccc(Cl)c3)cn(-c3ccnc(C(=O)O)c3)c2c1 [P-0090, 4-(3-(3-chlorobenzyl)-6-(3,5-dimethylisoxazol-4-yl)-1H-pyrrolo[3,2-b]pyridin-1-yl)picolinic acid] is lower in IC50: 1 to 8 µM for the first, 0.0001 to 1 µM for the second.

Cc1noc(C)c1-c1cnc2c(Cc3ccccc3Cl)cn(-c3ccnc(C(=O)O)c3)c2c1 [P-0091, 4-(3-(2-chlorobenzyl)-6-(3,5-dimethylisoxazol-4-yl)-1H-pyrrolo[3,2-b]pyridin-1-yl)picolinic acid] and Cc1noc(C)c1-c1cnc2c(c1)c(-c1c(Cl)cc(C(=O)O)cc1Cl)cn2C(C)c1ccccn1 (stereo not shown) [P-0095, 3,5-dichloro-4-(5-(3,5-dimethylisoxazol-4-yl)-1-(1-(pyridin-2-yl)ethyl)-1H-pyrrolo[2,3-b]pyridin-3-yl)benzoic acid] fall in the same range of IC50: 1 to 8 µM for the first, 1 to 8 µM for the second.

First: Cc1noc(C)c1-c1cnc2c(c1)c(C1=CCC(C(=O)O)CC1)cn2Cc1ccccc1 (stereo not shown) [P-0093, 4-(1-benzyl-5-(3,5-dimethylisoxazol-4-yl)-1H-pyrrolo[2,3-b]pyridin-3-yl)cyclohex-3-ene-1-carboxylic acid]
Second: Cc1noc(C)c1-c1cnc2c(c1)c(-c1c(F)cc(C(=O)O)cc1F)cn2C(C)c1ccccn1 (stereo not shown) [P-0094, 4-(5-(3,5-dimethylisoxazol-4-yl)-1-(1-(pyridin-2-yl)ethyl)-1H-pyrrolo[2,3-b]pyridin-3-yl)-3,5-difluorobenzoic acid]
The IC50 of the first is lower: 1 to 8 µM for the first, 8 to 1000 µM for the second.

Cc1noc(C)c1-c1cnc2c(c1)c(-c1c(F)ccc(NS(C)(=O)=O)c1F)cn2C(C)c1ccccn1 (stereo not shown) [P-0096, N-(3-(5-(3,5-dimethylisoxazol-4-yl)-1-(1-(pyridin-2-yl)ethyl)-1H-pyrrolo[2,3-b]pyridin-3-yl)-2,4-difluorophenyl)methanesulfonamide] showed an IC50 of 1 to 8 µM.
